From patent publication US6469023B1, “Heterocyclic spiro-derivative” (Daiichi Pharmaceutical Co., Ltd., priority 1995, dated 2002)
≈ marks a conversion by molar mass, not a printed value. Like-named read-outs stand apart in the source and are kept apart here.

Tests used:
Experiment in all cases: Antibacterial activity, standard method of Japan Society of Chemotherapy (MIC)
Format in all cases: cell-based
S. flexneri, 2A 5503 = tested on: S. flexneri, 2A 5503
Procedure: (§1) The following Inventive and Reference Examples are provided to further illustrate the present invention, but not by way of limitation. The antibacterial activity of optically active compounds of interest was tested in accordance with the standard method designated by Japan Society of Chemotherapy. The results are shown in Table 1 as MIC (μg/ml). [drawing 10]

[1] = tested on: Str. faeccalis, ATCC-19433
Procedure: as §1

S. epidermidis, 56500 = tested on: S. epidermidis, 56500
Procedure: as §1

Str. pyogenes, G-36 = tested on: Str. pyogenes, G-36
Procedure: as §1

Ps. aeruginosa, 32121 = tested on: Ps. aeruginosa, 32121
Procedure: as §1

[2] = tested on: Ps. maltophilia, IID-1275
Procedure: as §1

S. aureus, 209P = tested on: S. aureus, 209P
Procedure: as §1

E. coli, NIHJ = tested on: E. coli, NIHJ
Procedure: as §1

Ps. aeruginosa, 32104 = tested on: Ps. aeruginosa, 32104
Procedure: as §1

Pr. vulgaris, 08601 = tested on: Pr. vulgaris, 08601
Procedure: as §1

S. aureus, 87037 = tested on: S. aureus, 87037
Procedure: as §1

Pr. mirabilis, IFO-3849 = tested on: Pr. mirabilis, IFO-3849
Procedure: as §1

Ser. marcescens, 10100 = tested on: Ser. marcescens, 10100
Procedure: as §1

[3] = Shigella flexneri, 2A5503, read-out: MIC
[4] = Staphylococcus epidermidis, 56500, S. epidermidis, read-out: MIC
[5] = Streptococcus pyogenes, G36, Str. pyogenes, read-out: MIC
[6] = Pseudomonas aeruginosa, read-out: MIC
[7] = Stenotrophomonas maltophilia, IID1275, Ps. maltophilia, read-out: MIC
[8] = Staphylococcus aureus, read-out: MIC
[9] = Escherichia coli, read-out: MIC
[10] = Pseudomonas aeruginosa, 32104, Ps. aeruginosa, read-out: MIC
[11] = Staphylococcus aureus, 87037, S. aureus, read-out: MIC
[12] = Proteus mirabilis, IFO3849, Pr. mirabilis, read-out: MIC
[13] = Serratia marcescens, read-out: MIC
[14] = Proteus vulgaris, 08601, Pr. vulgaris, read-out: MIC

| SMILES | MIC (S. flexneri, 2A 5503; [3]) [µg/mL] | MIC ([1]; read-out: MIC) [µg/mL] | MIC (S. epidermidis, 56500; [4]) [µg/mL] | MIC (Str. pyogenes, G-36; [5]) [µg/mL] | MIC (Ps. aeruginosa, 32121; [6]) [µg/mL] | MIC [2, 7] [µg/mL] | MIC (S. aureus, 209P; [8]) [µg/mL] | MIC (E. coli, NIHJ; [9]) [µg/mL] | MIC (Ps. aeruginosa, 32104; [10]) [µg/mL] | MIC (Pr. vulgaris, 08601; Pr. vulgaris) | MIC (S. aureus, 87037; [11]) [µg/mL] | MIC (Pr. mirabilis, IFO-3849; [12]) [µg/mL] | MIC (Ser. marcescens, 10100; [13]) [µg/mL] | MIC (S. flexneri, 2A 5503) | MIC [1] [µg/mL] | MIC (S. epidermidis, 56500; S. epidermidis) | MIC (Str. pyogenes, G-36; Str. pyogenes) [µg/mL] | MIC (Ps. aeruginosa, 32121) [µg/mL] | MIC ([2]; Ps. maltophilia) [µg/mL] | MIC (S. aureus, 87037; S. aureus) [µg/mL] | other results |
| --- | --- | --- | --- | --- | --- | --- | --- | --- | --- | --- | --- | --- | --- | --- | --- | --- | --- | --- | --- | --- | --- |
| Nc1c(F)c(N2CCC3(CC3N)C2)c(F)c2c1c(=O)c(C(=O)O)cn2[C@@H]1C[C@@H]1F (single isomer, unassigned) [Example 1] | ≤ 0.003 | 0.025 (≈ 0.0612 µM) | ≤ 0.003 | 0.013 (≈ 0.0318 µM) | 0.025 (≈ 0.0612 µM) | 0.025 (≈ 0.0612 µM) | ≤ 0.003 | ≤ 0.003 | 0.025 (≈ 0.0612 µM) | 0.006 µg/mL (≈ 0.0147 µM) | 0.05 (≈ 0.122 µM) | 0.013 (≈ 0.0318 µM) | 0.025 (≈ 0.0612 µM) | – | – | – | – | – | – | – | – |
| Nc1c(F)c(N2CCC3(CC3N)C2)c(F)c2c1c(=O)c(C(=O)O)cn2[C@@H]1C[C@@H]1F (single isomer, unassigned) [Example 4] | – | – | – | – | – | – | – | – | – | 0.013 µg/mL (≈ 0.0318 µM) | – | – | – | ≦0.003 μg/ml | 0.025 (≈ 0.0612 µM) | ≦0.003 μg/ml | 0.013 (≈ 0.0318 µM) | 0.025 (≈ 0.0612 µM) | 0.025 (≈ 0.0612 µM) | 0.05 (≈ 0.122 µM) | MIC (S. aureus, 209P): ≦0.003 μg/ml; MIC (E. coli, NIHJ): ≦0.003 μg/ml; MIC (Ps. aeruginosa, 32104; Ps. aeruginosa): 0.05 µg/mL (≈ 0.122 µM); MIC (Pr. mirabilis, IFO-3849; Pr. mirabilis): 0.025 µg/mL (≈ 0.0612 µM); MIC (Ser. marcescens, 10100): 0.025 µg/mL (≈ 0.0612 µM) |
| Cc1c(N2CCC3(CC3N)C2)c(F)c(N)c2c(=O)c(C(=O)O)cn([C@@H]3C[C@@H]3F)c12 (single isomer, unassigned) [Example 5] | ≤ 0.003 | 0.05 (≈ 0.124 µM) | 0.013 (≈ 0.0321 µM) | 0.05 (≈ 0.124 µM) | 0.025 (≈ 0.0618 µM) | 0.05 (≈ 0.124 µM) | ≤ 0.003 | ≤ 0.003 | 0.05 (≈ 0.124 µM) | – | 0.1 (≈ 0.247 µM) | 0.05 (≈ 0.124 µM) | 0.05 (≈ 0.124 µM) | – | – | – | – | – | – | – | MIC (Pr. vulgaris, 08601; [14]): 0.013 µg/mL (≈ 0.0321 µM) |
| Cc1c(N2CCC3(CC3N)C2)c(F)cc2c(=O)c(C(=O)O)cn([C@@H]3C[C@@H]3F)c12 (single isomer, unassigned) [Example 6] | ≤ 0.003 | 0.05 (≈ 0.128 µM) | – | – | 0.025 (≈ 0.0642 µM) | 0.05 (≈ 0.128 µM) | ≤ 0.003 | ≤ 0.003 | 0.05 (≈ 0.128 µM) | – | – | 0.013 (≈ 0.0334 µM) | 0.025 (≈ 0.0642 µM) | – | – | 0.013 µg/mL (≈ 0.0334 µM) | 0.013 (≈ 0.0334 µM) | – | – | 0.10 (≈ 0.257 µM) | MIC (Pr. vulgaris, 08601; [14]): ≤ 0.003 µg/mL |
| Cc1c(N2CCC3(CC3N)C2)c(F)cc2c(=O)c(C(=O)O)cn([C@@H]3C[C@@H]3F)c12 (single isomer, unassigned) [Example 7] | – | – | – | – | – | – | – | – | – | ≦0.003 μg/ml | – | – | – | ≦0.003 μg/ml | 0.025 (≈ 0.0642 µM) | 0.006 µg/mL (≈ 0.0154 µM) | 0.006 (≈ 0.0154 µM) | 0.025 (≈ 0.0642 µM) | 0.025 (≈ 0.0642 µM) | 0.25 (≈ 0.642 µM) | MIC (S. aureus, 209P): ≦0.003 μg/ml; MIC (E. coli, NIHJ): ≦0.003 μg/ml; MIC (Ps. aeruginosa, 32104; Ps. aeruginosa): 0.05 µg/mL (≈ 0.128 µM); MIC (Pr. mirabilis, IFO-3849; Pr. mirabilis): 0.013 µg/mL (≈ 0.0334 µM); MIC (Ser. marcescens, 10100): 0.025 µg/mL (≈ 0.0642 µM) |
